Tests used:
Type in all cases: in vivo
[1] = test system: barnyardgrass (Echinochloa crus-galli); test: Test G Pre-Emergence Protocol; conditions: Echinochloa crus-galli, pre-emergence, 312 h, evaluated after 13 days; for pest or weed control at 15.625 g/ha: 15.625 g ai/ha, read-out: Barnyard grass damage rating (100=total damage to plant; 0=no damage to plant); for pest or weed control at 62.5 g/ha: 62.5 g ai/ha, 100=total damage to plant, 0=no damage to plant, read-out: plant damage rating, Barnyardgrass; for pest or weed control at 250 g/ha: 250 g ai/ha, read-out: Barnyardgrass damage rating (100=total damage to plant; 0=no damage to plant)
Summary of the method: (§1)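 Glasshouse pre-emergence test: soil-sown seeds, sprayed after 1 d at 15.625, 62.5 or 250 g/ha. Conditions 24/16° C day/night, 14 h light, 65% humidity, watering twice daily. Rating 13 d post-spray (100 = total damage).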

corn (Zea mays) [2] = test: Test G Pre-Emergence Protocol; conditions: Zea mays, pre-emergence, 312 h, evaluated after 13 days; for plant injury at 15.625 g/ha: 15.625 g ai/ha; for plant injury at 15.625 g/ha / plant injury at 250 g/ha: read-out: Corn damage rating (100=total damage to plant; 0=no damage to plant); for plant injury at 62.5 g/ha: 62.5 g ai/ha, 100=total damage to plant, 0=no damage to plant, read-out: plant damage rating, Corn; for plant injury at 250 g/ha: 250 g ai/ha
Summary of the method: as §1

[3] = test system: giant foxtail (Setaria faberi); test: Test G Pre-Emergence Protocol; conditions: Setaria faberi, pre-emergence, 312 h, evaluated after 13 days; for pest or weed control at 15.625 g/ha: 15.625 g ai/ha; for pest or weed control at 15.625 g/ha / pest or weed control at 250 g/ha: read-out: Foxtail, Giant damage rating (100=total damage to plant; 0=no damage to plant); for pest or weed control at 62.5 g/ha: 62.5 g ai/ha, 100=total damage to plant, 0=no damage to plant, read-out: plant damage rating, Foxtail, Giant; for pest or weed control at 250 g/ha: 250 g ai/ha
Summary of the method: as §1

[4] = test system: ivy-leaved morning glory (Ipomoea hederacea); test: Test G Pre-Emergence Protocol; conditions: Ipomoea, pre-emergence, 312 h, evaluated after 13 days; for pest or weed control at 15.625 g/ha: 15.625 g ai/ha, read-out: Morning-glory, Ivy-leaved damage rating (100=total damage to plant; 0=no damage to plant); for pest or weed control at 62.5 g/ha: 62.5 g ai/ha, 100=total damage to plant, 0=no damage to plant, read-out: plant damage rating, Morningglory, Ivy-leaved; for pest or weed control at 250 g/ha: 250 g ai/ha, read-out: Morningglory, Ivy-leaved damage rating (100=total damage to plant; 0=no damage to plant)
Summary of the method: as §1

[5] = test system: redroot pigweed (Amaranthus retroflexus); test: Test G Pre-Emergence Protocol; conditions: Amaranthus retroflexus, pre-emergence, 312 h, evaluated after 13 days; for pest or weed control at 15.625 g/ha: 15.625 g ai/ha; for pest or weed control at 15.625 g/ha / pest or weed control at 250 g/ha: read-out: Pigweed, Redroot damage rating (100=total damage to plant; 0=no damage to plant); for pest or weed control at 62.5 g/ha: 62.5 g ai/ha, 100=total damage to plant, 0=no damage to plant, read-out: plant damage rating, Pigweed, Redroot; for pest or weed control at 250 g/ha: 250 g ai/ha
Summary of the method: as §1

[6] = test system: velvetleaf (Abutilon theophrasti); test: Test G Pre-Emergence Protocol; conditions: Abutilon theophrasti, pre-emergence, 312 h, evaluated after 13 days; for pest or weed control at 15.625 g/ha: 15.625 g ai/ha; for pest or weed control at 15.625 g/ha / pest or weed control at 250 g/ha: read-out: Velvetleaf damage rating (100=total damage to plant; 0=no damage to plant); for pest or weed control at 62.5 g/ha: 62.5 g ai/ha, 100=total damage to plant, 0=no damage to plant, read-out: plant damage rating, Velvetleaf; for pest or weed control at 250 g/ha: 250 g ai/ha
Summary of the method: as §1

[7] = test system: barnyardgrass (Echinochloa crus-galli); test: Test G Post-Emergence Protocol; conditions: Echinochloa crus-galli, post-emergence, 312 h; for pest or weed control at 15.625 g/ha: 15.625 g ai/ha, evaluated after 13 days (100=total damage to plant; 0=no damage to plant), read-out: Barnyardgrass damage rating; for pest or weed control at 62.5 g/ha: 62.5 g ai/ha, read-out: Barnyardgrass damage rating (100=total damage to plant; 0=no damage to plant); for pest or weed control at 62.5 g/ha / pest or weed control at 250 g/ha: evaluated after 13 days; for pest or weed control at 250 g/ha: 250 g ai/ha, read-out: damage to plant, Barnyardgrass (100=total damage to plant; 0=no damage to plant)
Summary of the method: (§2)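 Scores run 0 (no damage) to 100 (total damage) and were taken 13 days after spraying. Plants had been raised in pots for 8 days under glasshouse control (24/16 °C, 14 h photoperiod, 65% humidity) and then treated at 15.625, 62.5 or 250 g/ha.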

corn (Zea mays) [8] = test: Test G Post-Emergence Protocol; conditions: Zea mays, post-emergence, 312 h; for plant injury at 15.625 g/ha: 15.625 g ai/ha, evaluated after 13 days (100=total damage to plant; 0=no damage to plant), read-out: Corn damage rating; for plant injury at 62.5 g/ha: 62.5 g ai/ha, read-out: Corn damage rating (100=total damage to plant; 0=no damage to plant); for plant injury at 62.5 g/ha / plant injury at 250 g/ha: evaluated after 13 days; for plant injury at 250 g/ha: 250 g ai/ha, read-out: damage to plant, Corn (100=total damage to plant; 0=no damage to plant)
Summary of the method: as §2

[9] = test system: giant foxtail (Setaria faberi); test: Test G Post-Emergence Protocol; conditions: Setaria faberi, post-emergence, 312 h; for pest or weed control at 15.625 g/ha: 15.625 g ai/ha, evaluated after 13 days (100=total damage to plant; 0=no damage to plant), read-out: Foxtail, Giant damage rating; for pest or weed control at 62.5 g/ha: 62.5 g ai/ha, read-out: Foxtail, Giant damage rating (100=total damage to plant; 0=no damage to plant); for pest or weed control at 62.5 g/ha / pest or weed control at 250 g/ha: evaluated after 13 days; for pest or weed control at 250 g/ha: 250 g ai/ha, read-out: damage to plant, Foxtail, Giant (100=total damage to plant; 0=no damage to plant)
Summary of the method: as §2

[10] = test system: ivy-leaved morning glory (Ipomoea hederacea); test: Test G Post-Emergence Protocol; conditions: Ipomoea, post-emergence, 312 h; for pest or weed control at 15.625 g/ha: 15.625 g ai/ha, evaluated after 13 days (100=total damage to plant; 0=no damage to plant), read-out: Morningglory, Ivy-leaved damage rating; for pest or weed control at 62.5 g/ha: 62.5 g ai/ha, read-out: Morningglory, Ivy-leaved damage rating (100=total damage to plant; 0=no damage to plant); for pest or weed control at 62.5 g/ha / pest or weed control at 250 g/ha: evaluated after 13 days; for pest or weed control at 250 g/ha: 250 g ai/ha, read-out: damage to plant, Morningglory, Ivy-leaved (100=total damage to plant; 0=no damage to plant)
Summary of the method: as §2

[11] = test system: redroot pigweed (Amaranthus retroflexus); test: Test G Post-Emergence Protocol; conditions: Amaranthus retroflexus, post-emergence, 312 h; for pest or weed control at 15.625 g/ha: 15.625 g ai/ha, evaluated after 13 days (100=total damage to plant; 0=no damage to plant), read-out: Pigweed, Redroot damage rating; for pest or weed control at 62.5 g/ha: 62.5 g ai/ha, read-out: Pigweed, Redroot damage rating (100=total damage to plant; 0=no damage to plant); for pest or weed control at 62.5 g/ha / pest or weed control at 250 g/ha: evaluated after 13 days; for pest or weed control at 250 g/ha: 250 g ai/ha, read-out: damage to plant, Pigweed, Redroot (100=total damage to plant; 0=no damage to plant)
Summary of the method: as §2

[12] = test system: velvetleaf (Abutilon theophrasti); test: Test G Post-Emergence Protocol; conditions: Abutilon theophrasti, post-emergence, 312 h; for pest or weed control at 15.625 g/ha: 15.625 g ai/ha, evaluated after 13 days (100=total damage to plant; 0=no damage to plant), read-out: Velvetleaf damage rating; for pest or weed control at 62.5 g/ha: 62.5 g ai/ha, read-out: Velvetleaf damage rating (100=total damage to plant; 0=no damage to plant); for pest or weed control at 62.5 g/ha / pest or weed control at 250 g/ha: evaluated after 13 days; for pest or weed control at 250 g/ha: 250 g ai/ha, read-out: damage to plant, Velvetleaf (100=total damage to plant; 0=no damage to plant)
Summary of the method: as §2

SMILES | pest or weed control at 15.625 g/ha [1] | pest or weed control at 62.5 g/ha [1] | pest or weed control at 250 g/ha [1] | plant injury at 15.625 g/ha (corn (Zea mays) [2]) | plant injury at 62.5 g/ha (corn (Zea mays) [2]) | plant injury at 250 g/ha (corn (Zea mays) [2]) | pest or weed control at 15.625 g/ha [3] | pest or weed control at 62.5 g/ha [3] | pest or weed control at 250 g/ha [3] | pest or weed control at 62.5 g/ha [4] | pest or weed control at 250 g/ha [4] | pest or weed control at 15.625 g/ha [5] | pest or weed control at 62.5 g/ha [5] | pest or weed control at 250 g/ha [5] | pest or weed control at 15.625 g/ha [6] | pest or weed control at 62.5 g/ha [6] | pest or weed control at 250 g/ha [6] | pest or weed control at 15.625 g/ha [7] | pest or weed control at 62.5 g/ha [7] | pest or weed control at 250 g/ha [7] | other results
CN1C[C@@H](c2ccc(C(F)(F)F)cc2)[C@H](C(=O)Nc2cc(C(F)(F)F)[nH]n2)C1=O (racemic) [Compound 1530] | 0% | 0% | 0% | 0% | 0% | 0% | 0% | 0% | 0% | 0% | 0% | 0% | 0% | 0% | 0% | 0% | 0% | 0% | 0% | 0% | pest or weed control at 15.625 g/ha [4]: 0%; plant injury at 15.625 g/ha (corn (Zea mays) [8]): 0%; plant injury at 62.5 g/ha (corn (Zea mays) [8]): 0%; plant injury at 250 g/ha (corn (Zea mays) [8]): 0%; pest or weed control at 15.625 g/ha [9]: 0%; pest or weed control at 62.5 g/ha [9]: 0%; pest or weed control at 250 g/ha [9]: 0%; pest or weed control at 15.625 g/ha [10]: 0%; pest or weed control at 62.5 g/ha [10]: 0%; pest or weed control at 250 g/ha [10]: 0%; pest or weed control at 15.625 g/ha [11]: 0%; pest or weed control at 62.5 g/ha [11]: 0%; pest or weed control at 250 g/ha [11]: 0%; pest or weed control at 15.625 g/ha [12]: 0%; pest or weed control at 62.5 g/ha [12]: 0%; pest or weed control at 250 g/ha [12]: 0%
CN1C[C@@H](c2ccc(C(F)(F)F)cc2)[C@H](C(=O)Nc2n[nH]c(C(F)(F)F)n2)C1=O (racemic) [Compound 1540] | 0% | 0% | 0% | 0% | 0% | 0% | 0% | 0% | 0% | 0% | 0% | 0% | 0% | 40% | 0% | 0% | 0% | 0% | 0% | 0% | pest or weed control at 15.625 g/ha [4]: 0%; plant injury at 15.625 g/ha (corn (Zea mays) [8]): 0%; plant injury at 62.5 g/ha (corn (Zea mays) [8]): 10%; plant injury at 250 g/ha (corn (Zea mays) [8]): 10%; pest or weed control at 15.625 g/ha [9]: 0%; pest or weed control at 62.5 g/ha [9]: 0%; pest or weed control at 250 g/ha [9]: 0%; pest or weed control at 15.625 g/ha [10]: 0%; pest or weed control at 62.5 g/ha [10]: 10%; pest or weed control at 250 g/ha [10]: 10%; pest or weed control at 15.625 g/ha [11]: 0%; pest or weed control at 62.5 g/ha [11]: 0%; pest or weed control at 250 g/ha [11]: 20%; pest or weed control at 15.625 g/ha [12]: 0%; pest or weed control at 62.5 g/ha [12]: 0%; pest or weed control at 250 g/ha [12]: 0%
Cc1conc1NC(=O)[C@@H]1C(=O)N(C)C[C@H]1c1ccc(C(F)(F)F)cc1 (racemic) [Compound 1553] | 0% | 0% | 0% | 0% | 0% | 0% | 0% | 0% | 0% | 0% | 0% | 0% | 0% | 0% | 0% | 0% | 0% | 0% | 0% | 0% | plant injury at 15.625 g/ha (corn (Zea mays) [8]): 0%; plant injury at 62.5 g/ha (corn (Zea mays) [8]): 0%; plant injury at 250 g/ha (corn (Zea mays) [8]): 0%; pest or weed control at 15.625 g/ha [9]: 0%; pest or weed control at 62.5 g/ha [9]: 0%; pest or weed control at 250 g/ha [9]: 0%; pest or weed control at 15.625 g/ha [10]: 0%; pest or weed control at 62.5 g/ha [10]: 0%; pest or weed control at 250 g/ha [10]: 0%; pest or weed control at 15.625 g/ha [11]: 0%; pest or weed control at 62.5 g/ha [11]: 0%; pest or weed control at 250 g/ha [11]: 0%; pest or weed control at 15.625 g/ha [12]: 0%; pest or weed control at 62.5 g/ha [12]: 0%; pest or weed control at 250 g/ha [12]: 0%

Reference: US12077503B2, “Substituted cyclic amides and their use as herbicides” (FMC CORPORATION, priority 2015, dated 2024)
